In ChEMBL document CHEMBL1156935, “Discovery of potent BACE-1 inhibitors containing a new hydroxyethylene (HE) scaffold: exploration of P1' alkoxy residues and an aminoethylene (AE) central core” (Bioorg Med Chem, 2010):

Legend:
Beta-secretase 1 = Beta-secretase 1 (Homo sapiens, UniProt P56817)
Description: Inhibition of human BACE1 expressed in Escherichia coli BL21(DE3) by resolved fluorescence assay

Cathepsin D = Cathepsin D (Homo sapiens, UniProt P07339)
Description: Inhibition of human cathepsin D

Homo sapiens = species on record: Homo sapiens; assay: Selectivity for human BACE1 over human cathepsin D

Chain of Beta-secretase 1 (P56817 whole entry): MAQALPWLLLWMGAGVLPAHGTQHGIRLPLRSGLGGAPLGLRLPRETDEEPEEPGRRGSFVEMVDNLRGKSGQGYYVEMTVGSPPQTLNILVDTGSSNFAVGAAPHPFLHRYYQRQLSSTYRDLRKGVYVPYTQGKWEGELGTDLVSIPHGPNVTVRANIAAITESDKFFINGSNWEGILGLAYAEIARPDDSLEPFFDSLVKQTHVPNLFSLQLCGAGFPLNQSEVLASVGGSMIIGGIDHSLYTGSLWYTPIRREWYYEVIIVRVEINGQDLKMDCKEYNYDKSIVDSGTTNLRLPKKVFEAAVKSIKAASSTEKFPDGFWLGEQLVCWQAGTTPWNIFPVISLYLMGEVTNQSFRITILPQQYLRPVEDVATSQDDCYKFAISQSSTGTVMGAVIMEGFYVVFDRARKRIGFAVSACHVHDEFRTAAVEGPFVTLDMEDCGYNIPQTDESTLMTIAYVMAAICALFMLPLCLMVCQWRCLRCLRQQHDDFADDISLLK
Chain of Cathepsin D (P07339 65-162 limits assumed): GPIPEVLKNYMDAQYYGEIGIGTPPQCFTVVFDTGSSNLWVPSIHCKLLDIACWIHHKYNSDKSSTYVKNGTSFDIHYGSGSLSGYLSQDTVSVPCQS
Chain of Cathepsin D (P07339 169-412 limits assumed): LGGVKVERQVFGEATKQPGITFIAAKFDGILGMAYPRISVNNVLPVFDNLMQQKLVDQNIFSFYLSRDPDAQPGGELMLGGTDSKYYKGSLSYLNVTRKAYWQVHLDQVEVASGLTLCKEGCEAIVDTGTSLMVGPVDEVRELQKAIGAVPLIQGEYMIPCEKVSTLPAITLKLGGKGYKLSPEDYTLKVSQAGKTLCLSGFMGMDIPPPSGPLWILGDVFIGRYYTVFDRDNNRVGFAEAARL

Compound | Ki (Beta-secretase 1) [nM] | Ki (Cathepsin D) [nM] | Ratio Ki (Homo sapiens)
CC(C)[C@H](NC(=O)[C@@H](C[C@H](O)[C@H](COc1cc(F)cc(F)c1)NC(=O)c1cc(C(=O)N[C@H](C)c2ccccc2)cc(N(C)S(C)(=O)=O)c1)OCC1CC1)C(=O)NCc1ccccc1 | 1.3 | – | –
CO[C@H](CCC(COc1cc(F)cc(F)c1)NC(=O)c1cc(C(=O)N[C@H](C)c2ccccc2)cc(N(C)S(C)(=O)=O)c1)C(=O)N[C@H](C(=O)NCc1ccccc1)C(C)C (single isomer, unassigned) | 130 | > 5000 | –
CC(C)[C@H](NC(=O)[C@@H](C[C@H](O)[C@H](COc1cc(F)cc(F)c1)NC(=O)c1cc(C(=O)N[C@H](C)c2ccccc2)cc(N(C)S(C)(=O)=O)c1)OCc1ccccc1)C(=O)NCc1ccccc1 | 20 | 62 | 1.6
C=CCO[C@H](C[C@H](O)[C@H](COc1cc(F)cc(F)c1)NC(=O)c1cc(C(=O)N[C@H](C)c2ccccc2)cc(N(C)S(C)(=O)=O)c1)C(=O)N[C@H](C(=O)NCc1ccccc1)C(C)C | 3.3 | 130 | –
CCCO[C@H](C[C@H](O)[C@H](COc1cc(F)cc(F)c1)NC(=O)c1cc(C(=O)N[C@H](C)c2ccccc2)cc(N(C)S(C)(=O)=O)c1)C(=O)N[C@H](C(=O)NCc1ccccc1)C(C)C | 3 | 61 | –
CO[C@H](C[C@H](N=[N+]=[N-])C(COc1cc(F)cc(F)c1)NC(=O)c1cc(C(=O)N[C@H](C)c2ccccc2)cc(N(C)S(C)(=O)=O)c1)C(=O)N[C@H](C(=O)NCc1ccccc1)C(C)C (single isomer, unassigned) | 70 | > 5000 | –
CCO[C@H](C[C@H](O)[C@H](COc1cc(F)cc(F)c1)NC(=O)c1cc(C(=O)N[C@H](C)c2ccccc2)cc(N(C)S(C)(=O)=O)c1)C(=O)N[C@H](C(=O)NCc1ccccc1)C(C)C | 2.1 | 3350 | > 1500
CO[C@H](C[C@H](N)C(COc1cc(F)cc(F)c1)NC(=O)c1cc(C(=O)N[C@H](C)c2ccccc2)cc(N(C)S(C)(=O)=O)c1)C(=O)N[C@H](C(=O)NCc1ccccc1)C(C)C (single isomer, unassigned) | 140 | > 5000 | –
